{
  "source": "patent US20120108947A1",
  "about": "“METHOD FOR PREDICTING WEIGHT GAIN ASSOCIATED WITH A PHARMACEUTICAL THERAPY” (priority 2009, published 2012)",
  "conditions": "in vivo",
  "experimental": "TRL V1, V2, V3, V4, V5 and V6 responses and VLDL size response are measured during each visit along with increases in weight. […] The relationship of the change in TRL V6 to the change in weight is analyzed using a mixed effects model analysis.",
  "data": [
    {"smiles": "Cc1cc2c(s1)Nc1ccccc1N=C2N1CCN(C)CC1", "note": "[olanzapine, 2-methyl-4-(4-methyl-1-piperazinyl)-10H-thieno[2,3-b][1,5]benzodiazepine]", "values": [
      {"measurement": "magnitude of the TRL V6 response and VLDL size response in comparison to pre-dose concentration", "value": "increases"}
    ]}
  ]
}
